This is an account of results in patent publication US20240058443A1, “PREVENTION OR MITIGATION OF NK CELL ENGAGING AGENT-RELATED ADVERSE EFFECTS” (Hoffmann-La Roche Inc., priority 2021, published 2024).

One experiment deals with CD19+ B cell. Briefly: Whole blood assay: obinutuzumab-induced B cell depletion measured by flow cytometry. It counts as cell-based. As to conditions: for B cell depletion induced by obinutuzumab: 100 nM inhibitor, fresh whole blood, obinutuzumab 100 to 0.1 μg/mL, 48 hours, FIG. 1; for target cell killing mediated by NK cell engaging antibody: summary statement of the description, no conditions given. As to the method: FIG. 1. Effect of 100 nM ruxolitinib (ruxo), 100 nM sirolimus (siro), 100 nM dasatinib (dasa) on obinutuzumab-induced CD19^+ B cell depletion in a whole blood assay. Fresh whole blood was incubated with 100, 10, 1 and 0.1 μg/mL obinutuzumab or PGLALA IgG in the presence and absence of 100 nM ruxolitinib, 100 nM sirolimus and 100 nM dasatinib for 48 hours. The PGLALA IgG has a silent Fc region and is a negative control. At 48 hours, blood was collected and lysed and the percentage of CD19^+ B cell among live cells was measured by flow cytometry. Mean of n=2 donors.
(§1) The CD20-targeting, effector-enhanced antibody obinutuzumab (Gazyva®) depletes B cells via FcγR signaling, and can be associated with a risk of infusion reaction characterized by cytokine release induced via FcγR signaling. To assess whether the mTOR inhibitor sirolimus, the JAK1/2 inhibitor ruxolitinib and the Src inhibitor dasatinib can prevent cytokine release induced via FcγR signaling, a whole blood assay using escalating doses of obinutuzumab in the presence and absence of sirolimus, ruxolitinib and dasatinib was conducted. A corresponding anti-CD20 IgG with a silent Fc portion (comprising “PGLALA” mutations L234A, L235A, P329G (Kabat EU numbering)) was used as a negative control (“PGLALA IgG”). In this assay, fresh whole blood is incubated together with concentrations of obinutuzumab ranging from 100 μg/mL to 0.1 μg/mL in the presence and absence of 100 nM sirolimus, 100 nM ruxolitinib and 100 nM dasatinib. To assess the impact of the different kinase inhibitors on cytokine release, serum was collected at 24 hours and cytokines were analyzed by Luminex. To assess the impact of the different kinase inhibitors on B cell depletion, blood was lysed at 48 hours and B cell depletion was measured by flow cytometry.
In general terms: A flow cytometer gives signals particle by particle.

Experiment [1] relates to cytokine release induced via FcγR signaling. Briefly: Whole blood assay: obinutuzumab-induced cytokine release, serum cytokines analyzed by Luminex. Format: cell-based. As to conditions: for levels of IFN-γ: FIG. 2A; for levels of TNF-α: FIG. 2C; for levels of MCP-1: FIG. 2F; for cytokine release: overall statement, whole blood, obinutuzumab; for cytokine release induced by an NK cell engaging antibody: summary statement of the description, no conditions given. Here is the method: FIG. 2. Effect of 100 nM ruxolitinib (ruxo), 100 nM sirolimus (siro), 100 nM dasatinib (dasa) on obinutuzumab-induced IFN-γ (FIG. 2A), IL-2 (FIG. 2B), TNF-α (FIG. 2C), IL-6 (FIG. 2D), IL-8 (FIG. 2E) and MCP-1 (FIG. 2F) for 100, 10, 1 and 0.1 μg/mL obinutuzumab in a whole blood assay. Fresh whole blood was incubated with 100, 10, 1 and 0.1 μg/mL obinutuzumab or PGLALA IgG in the presence and absence of 100 nM ruxolitinib, 100 nM sirolimus and 100 nM dasatinib for 48 hours. The PGLALA IgG has a silent Fc region and is a negative control. At 24 hours, serum was collected and cytokines were analyzed by Luminex. Mean of n=2 donors.
as §1

Where [2] appears, read: 100 nM inhibitor, fresh whole blood, obinutuzumab 100 to 0.1 μg/mL, serum at 24 hours.
Setting [3] is: 100 nM inhibitor, fresh whole blood, obinutuzumab 100 to 0.1 μg/mL, serum at 24 hours, FIG. 2D, first IL-6 of the list.
The mark [4] stands for this setting: 100 nM inhibitor, fresh whole blood, obinutuzumab 100 to 0.1 μg/mL, serum at 24 hours, second IL-6 of the list.

In the case of `N#CC[C@H](C1CCCC1)n1cc(-c2ncnc3[nH]ccc23)cn1` [ruxolitinib, Ruxolitinib], in the experiment with CD19+ B cell, the “B cell depletion induced by obinutuzumab” value was “did not prevent” and the “target cell killing mediated by NK cell engaging antibody” value (from here on “target cell killing mediated”) was “retaining”. In experiment [1] (setting [2]), the “levels of IFN-γ” value is “reduced”, the “levels of TNF-α” value is on record as “reduced” and the “levels of MCP-1” value was “reduced”. Further, in experiment [1] (setting [3]), the “levels of IL-6” value was “reduced”. The “levels of IL-6” value in experiment [1] (setting [4]) is “reduced”. Besides, the cytokine release entry in experiment [1] (100 nM inhibitor) is given as “reduced cytokine release”. Further, the “cytokine release induced by an NK cell engaging antibody” value (shortened to “cytokine release induced”) in experiment [1] is reported as “potently prevent”.

For `CO[C@H]1C[C@@H]2CC[C@@H](C)[C@@](O)(O2)C(=O)C(=O)N2CCCC[C@H]2C(=O)O[C@H]([C@H](C)C[C@@H]2CC[C@@H](OCCO)[C@H](OC)C2)CC(=O)[C@H](C)/C=C(\C)[C@@H](O)[C@@H](OC)C(=O)[C@H](C)C[C@H](C)/C=C/C=C/C=C/1C` [everolimus, Everolimus], the “target cell killing mediated” value in the experiment with CD19+ B cell is “retaining”. Also, the “cytokine release induced” value in experiment [1] was “potently prevent”.

Regarding `Cc1nc(Nc2ncc(C(=O)Nc3c(C)cccc3Cl)s2)cc(N2CCN(CCO)CC2)n1` [dasatinib, N-(2-chloro-6-methylphenyl)-2[[6[4-(2-hydroxyethyl)-1-piperazinyl]-2-methyl-4-pyrimidinyl]amino]-5-thiazole carboxamide monohydrate], in the experiment on CD19+ B cell, the “B cell depletion induced by obinutuzumab” value is reported as “did not prevent” and the “target cell killing mediated” value was “retaining”. In addition, in experiment [1] (setting [2]), the “levels of IFN-γ” value is given as “strongly reduced”, the “levels of TNF-α” value was “strongly reduced” and the “levels of MCP-1” value is reported as “strongly reduced”. Also, the “levels of IL-2” value in experiment [1] (100 nM inhibitor, fresh whole blood, obinutuzumab 100 to 0.1 μg/mL, serum at 24 hours, FIG. 2B) is on record as “strongly reduced”. Besides, the “levels of IL-6” value in experiment [1] (setting [3]) is listed as “strongly reduced”. Also, the “levels of IL-6” value in experiment [1] (setting [4]) is “strongly reduced”. For the same compound, the “potency in reducing cytokine release among the three classes of kinase inhibitors” value in experiment [1] (comparison of Src, mTOR and JAK1/2 inhibitor at 100 nM) was “most potent”. The cytokine release entry in experiment [1] (100 nM inhibitor) is “reduced cytokine release”. Moreover, in experiment [1], the “cytokine release induced” value is given as “potently prevent”.

As for `CO[C@H]1C[C@@H]2CC[C@@H](C)[C@@](O)(O2)C(=O)C(=O)N2CCCC[C@H]2C(=O)O[C@H]([C@H](C)C[C@@H]2CC[C@@H](O)[C@H](OC)C2)CC(=O)[C@H](C)/C=C(\C)[C@@H](O)[C@@H](OC)C(=O)[C@H](C)C[C@H](C)/C=C/C=C/C=C/1C` [sirolimus, Sirolimus], in the experiment with CD19+ B cell, the “B cell depletion induced by obinutuzumab” value is “did not prevent” and the “target cell killing mediated” value was “retaining”. Moreover, in experiment [1] (setting [2]), the “levels of IFN-γ” value is “reduced”, the “levels of TNF-α” value is “reduced” and the “levels of MCP-1” value was “reduced”. For the same compound, the “levels of IL-6” value in experiment [1] (setting [3]) is listed as “reduced”. In addition, the “levels of IL-6” value in experiment [1] (setting [4]) is given as “reduced”. In addition, the cytokine release result in experiment [1] (100 nM inhibitor) is “reduced cytokine release”. The “cytokine release induced” value in experiment [1] is on record as “potently prevent”.

Turning to `CO[C@H]1C[C@@H]2CC[C@@H](C)[C@@](O)(O2)C(=O)C(=O)N2CCCC[C@H]2C(=O)O[C@H]([C@H](C)C[C@@H]2CC[C@@H](OC(=O)C(C)(CO)CO)[C@H](OC)C2)CC(=O)[C@H](C)/C=C(\C)[C@@H](O)[C@@H](OC)C(=O)[C@H](C)C[C@H](C)/C=C/C=C/C=C/1C` [temsirolimus, Temsirolimus], the “target cell killing mediated” value in the experiment on CD19+ B cell is “retaining”. Moreover, in experiment [1], the “cytokine release induced” value is on record as “potently prevent”.
